Assay results published in patent publication US8729122B2, “Pharmaceutical and nutraceutical compositions of abscisic acid” (Valent BioSciences Corporation, priority 2010, dated 2014).

Columns and labels:
rats [1] = test: Two Generation Reproduction Toxicity Study (dietary S-ABA); assay type: in vivo; conditions: for SPLEEN WEIGHT, % DIFFERENCE: versus 0 PPM
Method: Two Generation Reproduction Toxicity Study
This study was conducted to determine the potential adverse effects of the test substance on reproduction in a 2-generation study. This included determining the effects of the test substance on male and female reproductive processes, including gonadal function, estrous cyclicity, mating behavior, conception, gestation, parturition, lactation, weaning, and on growth and development of the offspring. A minimum of 1 litter was produced in each generation.
Three groups of male and female were offered S-ABA, continuously in the diet for at least 70 consecutive days prior to mating. Target tests substance concentrations were 10,000, 15,000, and 20,000 ppm for the F0 and F1 generations. A concurrent control group of 30 rats/sex was offered the basal diet continuously throughout the study. F0 animals were approximately 7 weeks of age at the initiation of test diet administration. The test diet was administered to the offspring selected to become the F1 generation following weaning. The F0 and F1 males continued to receive the test substance throughout mating and continuing through the day prior to euthanasia. The F0 and F1 females continued to receive the test substance throughout mating, gestation, and lactation, and through the day of euthanasia. For both generations (F1 and F2), 8 pups per litter (4 per sex, when possible) were selected to reduce the variability among the litters. Offspring (30/sex/group, if possible) from the pairing of the F0 animals were selected to constitute the F1 generation.
All animals were observed twice daily for appearance and behavior. Clinical observations, body weights, and food consumption were recorded at appropriate intervals for males throughout the study and for females prior to mating and during gestation and lactation. All F0 and F1 females were allowed to deliver and rear their pups until weaning on lactation day 21. Clinical observations, body weights, and sexes for F1 and F2 pups were recorded at appropriate intervals. Nonselected F1 pups and all surviving F2 pups were necropsied. Selected organs were weighed from 1 pup/sex/litter from F1 and F2 pups that were necropsied. Each surviving F0 and F1 parental animal received a complete detailed gross necropsy following the completion of weaning of the F1 and F2 pups, respectively; selected organs were weighed. Spermatogenic endpoints were recorded for all F0 and F1 males, and ovarian primordial follicle counts were recorded for all F0 and F1 females in the control and high-exposure groups and all F0 and F1 females suspected of reduced fertility. Designated tissues from all F0 and F1 parental animals were examined microscopically.

rats [2] = test: Rat neurotoxicity testing; assay type: in vivo; conditions: especially female
rats [3] = test: 90-Day Oral Toxicity Study in Rodents (dietary S-ABA); assay type: in vivo; conditions: for PROSTATE WEIGHT, mean: 90 days
Method: Tests were conducted with (S)-(+)-abscisic acid in accordance with standard guidelines and procedures as evidenced by EPA Subchronic Toxicity Test Guidelines: 870.3050—Repeated Dose 28-Day Oral Toxicity Study in Rodents (July 2000); 870.3100—90-Day Oral Toxicity in Rodents (August 1998); 870.3650—Combined Repeated Dose Toxicity Study with the Reproduction/Developmental Toxicity Screening Test (July 2000); and 870.3200—21/28-Day Dermal Toxicity (August 1998), as well as Organization for Economic Co-operation and Development (OECD) Guidelines for the Testing of Chemicals including: Test No. 407: Repeated Dose 28-day Oral Toxicity Study in Rodents; Test No. 408: Repeated Dose 90-Day Oral Toxicity Study in Rodents; Test No. 416: Two-Generation Reproduction Toxicity; and Test No. 410: Repeated Dose Dermal Toxicity: 21/28-day Study.
90-Day Oral Toxicity Study in Rodents
From the batch supplied (42 males and 42 females), 40 males and 40 females were assigned to the study. Animals were allocated to 4 dose groups and treated as follows:
The animals were dosed by the dietary route 7 days/week for 13 consecutive weeks and up to immediately before terminal kill. Control animals received blank diet only. The concentration was constant throughout the treatment period. Detailed examinations were conducted on all animals during Weeks 4, 8 and 12. Histopathological evaluation of all tissues was undertaken for all animals in the Control and dose groups. Observations and testing results from this study can be seen in Tables 2, 4 and 5 below.
In a 90 day toxicity study in rats, glucose and triglyceride levels were measured.

[4] = Fetal data at scheduled necropsy; assay type: in vivo, rats
Excerpt: Observations and testing results from this study can be seen in Tables 1, 3 and 6-13 below.
Further supporting data can be seen below in Tables 10 and 11 showing that at necropsy fetus numbers and follicle size increase with the addition of S-ABA.

[5] = second generation pups, 10,000 PPM
[6] = second generation pups, 15,000 PPM
[7] = second generation pups, 20,000 PPM

Question: Which “Offspring Born” value (rats [1]; 20,000 ppm) does the source give for `CC1=CC(=O)CC(C)(C)[C@@]1(O)/C=C/C(C)=C\C(=O)O` [S-ABA, (S)-(+)-abscisic acid] here?
Answer: Its value is 327.

Question: What about the “Offspring FOUND DEAD” value (rats [1]; 20,000 ppm) of the same compound?
Answer: The value was 11.

Question: And the “POSTNATAL SURVIVAL, BIRTH-4 (PRE-SELECT), mean” value (rats [1]; 20,000 ppm)?
Answer: The value was 96.8 % PER LITTER.

Question: What about the “POSTNATAL SURVIVAL, POSTNATAL DAY 0 (RELATIVE TO # BORN), mean” value (rats [1]; 20,000 ppm) of the same compound?
Answer: Its value is 98.5 % PER LITTER.

Question: And the “POSTNATAL SURVIVAL, POSTNATAL DAY 0-1, mean” value (rats [1]; 20,000 ppm)?
Answer: The value was 99.7 % PER LITTER.

Question: What about the “POSTNATAL SURVIVAL, POSTNATAL DAY 1-4 (PRE-SELECTION), mean” value (rats [1]; 20,000 ppm) of the same compound?
Answer: Its value is 98.5 % PER LITTER.

Question: What about the “POSTNATAL SURVIVAL, POSTNATAL DAY 4 (POST-SELECT)-21, mean” value (rats [1]; 20,000 ppm) of the same compound?
Answer: The value was 98.0 % PER LITTER.

Question: And the “POSTNATAL SURVIVAL, POSTNATAL DAY 4 (POST-SELECTION)-7, mean” value (rats [1]; 20,000 ppm)?
Answer: The value was 98.5 % PER LITTER.

Question: What about the “POSTNATAL SURVIVAL, POSTNATAL DAY 7-14, mean” value (rats [1]; 20,000 ppm) of the same compound?
Answer: Its value is 99.5 % PER LITTER.

Question: What about the “POSTNATAL SURVIVAL, POSTNATAL DAY 14-21, mean” value (rats [1]; 20,000 ppm) of the same compound?
Answer: Its value is 100.0 % PER LITTER.

Question: And the “OFFSPRING WEIGHT, mean” value (rats [1]; 20,000 ppm, female, postnatal day 1)?
Answer: The value was 6.6 grams.

Question: And the “OFFSPRING WEIGHT, mean” value (rats [1]; 20,000 ppm, female, postnatal day 4)?
Answer: Its value is 8.8 grams.

Question: And the “OFFSPRING WEIGHT, mean” value (rats [1]; 20,000 ppm, female, postnatal day 7)?
Answer: Its value is 14.5 grams.

Question: What about the “OFFSPRING WEIGHT, mean” value (rats [1]; 20,000 ppm, female, postnatal day 14) of the same compound?
Answer: Its value is 30.5 grams.

Question: What about the “OFFSPRING WEIGHT, mean” value (rats [1]; 20,000 ppm, female, postnatal day 21) of the same compound?
Answer: Its value is 46.6 grams.

Question: What about the “OFFSPRING WEIGHT, mean” value (rats [1]; 20,000 ppm, male, postnatal day 1) of the same compound?
Answer: The value was 7.0 grams.

Question: And the “OFFSPRING WEIGHT, mean” value (rats [1]; 20,000 ppm, male, postnatal day 4)?
Answer: Its value is 9.3 grams.

Question: And the “OFFSPRING WEIGHT, mean” value (rats [1]; 20,000 ppm, male, postnatal day 7)?
Answer: Its value is 15.1 grams.

Question: And the “OFFSPRING WEIGHT, mean” value (rats [1]; 20,000 ppm, male, postnatal day 14)?
Answer: The value was 31.2 grams.

Question: And the “OFFSPRING WEIGHT, mean” value (rats [1]; 20,000 ppm, male, postnatal day 21)?
Answer: Its value is 48.1 grams.

Question: And the “OVARIAN PRIMORDIAL FOLLICLE COUNTS, mean” value (rats [1]; females, 10,000 PPM)?
Answer: Its value is 257.5.

Question: And the “OVARIAN PRIMORDIAL FOLLICLE COUNTS, mean” value (rats [1]; females, 15,000 PPM)?
Answer: Its value is 214.0.

Question: What about the “OVARIAN PRIMORDIAL FOLLICLE COUNTS, mean” value (rats [1]; females, 20,000 PPM) of the same compound?
Answer: The value was 270.3.

Question: And the “PROSTATE WEIGHT, ORGAN WEIGHT, mean” value (rats [1]; male rats, 10,000 ppm in diet)?
Answer: Its value is 1.08 GRAMS.

Question: And the “PROSTATE WEIGHT, ORGAN WEIGHT, mean” value (rats [1]; male rats, 15,000 ppm in diet)?
Answer: Its value is 1.13 GRAMS.

Question: And the “PROSTATE WEIGHT, ORGAN WEIGHT, mean” value (rats [1]; male rats, 20,000 ppm in diet)?
Answer: Its value is 1.09 GRAMS.

Question: What about the “SPLEEN WEIGHT, mean” value (rats [1]; males, 10,000 PPM) of the same compound?
Answer: Its value is 0.98 GRAMS.

Question: And the “SPLEEN WEIGHT, % DIFFERENCE” value (rats [1]; males, 10,000 PPM)?
Answer: The value was −2.0%.

Question: And the “SPLEEN WEIGHT, mean” value (rats [1]; males, 15,000 PPM)?
Answer: The value was 0.97 GRAMS.

Question: And the “SPLEEN WEIGHT, % DIFFERENCE” value (rats [1]; males, 15,000 PPM)?
Answer: The value was −3.0%.

Question: And the “SPLEEN WEIGHT, mean” value (rats [1]; males, 20,000 PPM)?
Answer: Its value is 0.92 GRAMS.

Question: And the “SPLEEN WEIGHT, % DIFFERENCE” value (rats [1]; males, 20,000 PPM)?
Answer: The value was −8.9%.

Question: What about the “impact of prostate weight reduction on sperm production” value (rats [1]; rats, two-generation study) of the same compound?
Answer: The value was “no impact on sperm production”.

Question: And the “SPLEEN WEIGHT, mean” value (rats [1]; [5])?
Answer: Its value is 0.1989 GRAMS.

Question: What about the “SPLEEN WEIGHT, % DIFFERENCE” value (rats [1]; [5]) of the same compound?
Answer: Its value is −14.8%.

Question: And the “SPLEEN WEIGHT, mean” value (rats [1]; [6])?
Answer: The value was 0.1918 GRAMS.

Question: What about the “SPLEEN WEIGHT, % DIFFERENCE” value (rats [1]; [6]) of the same compound?
Answer: The value was −17.8%.

Question: And the “SPLEEN WEIGHT, mean” value (rats [1]; [7])?
Answer: The value was 0.1979 GRAMS.

Question: What about the “SPLEEN WEIGHT, % DIFFERENCE” value (rats [1]; [7]) of the same compound?
Answer: The value was −15.2%.

Question: And the alertness (rats [2])?
Answer: The alertness was “heighten alertness”.

Question: And the “PROSTATE WEIGHT, mean” value (rats [3]; group 2, 2,000 ppm in diet)?
Answer: Its value is “MEAN = 0.731 GRAMS”.

Question: What about the “PROSTATE WEIGHT, mean” value (rats [3]; group 3, 6,000 ppm in diet) of the same compound?
Answer: Its value is “MEAN = 0.908 GRAMS”.

Question: And the “PROSTATE WEIGHT, mean” value (rats [3]; group 4, 20,000 ppm in diet)?
Answer: The value was “MEAN = 0.827 GRAMS”.

Question: And the “effect on triglyceride levels” value (rats [3]; male and female rats, 2,000 ppm to 20,000 ppm)?
Answer: Its value is “dose dependent decrease in triglyceride levels”.

Question: What about the “FEMALE fetuses at scheduled necropsy, MEAN” value (“FEMALE fetuses” below) ([4]; group 2, 500 MG/KG/DAY) of the same compound?
Answer: The value was 7.2.

Question: What about the “MALE fetuses at scheduled necropsy, MEAN” value ([4]; group 2, 500 MG/KG/DAY) of the same compound?
Answer: Its value is 7.5.

Question: What about the “VIABLE FETUSES at scheduled necropsy, MEAN” value (from here on “VIABLE FETUSES”) ([4]; group 2, 500 MG/KG/DAY) of the same compound?
Answer: The value was 14.7.

Question: What about the “FEMALE fetuses” value ([4]; group 3, 750 MG/KG/DAY) of the same compound?
Answer: Its value is 6.6.

Question: And the “MALE fetuses at scheduled necropsy, MEAN” value ([4]; group 3, 750 MG/KG/DAY)?
Answer: The value was 7.5.

Question: And the “VIABLE FETUSES” value ([4]; group 3, 750 MG/KG/DAY)?
Answer: The value was 14.2.

Question: What about the “FEMALE fetuses” value ([4]; group 4, 1,000 MG/KG/DAY) of the same compound?
Answer: Its value is 8.3.

Question: What about the “MALE fetuses at scheduled necropsy, MEAN” value ([4]; group 4, 1,000 MG/KG/DAY) of the same compound?
Answer: Its value is 6.8.

Question: And the “VIABLE FETUSES” value ([4]; group 4, 1,000 MG/KG/DAY)?
Answer: The value was 15.1.
